Measurements published in patent publication US20020128326A1, “TOPICAL IMMUNOMODULATING COMPOSITIONS FOR TREATMENT OF AIDS, HEPATITIS B&C, OTHER INFECTIOUS DISEASES, AND CANCER” (priority 1998, published 2002).

Tests used:
HIV-1 = test: HIV viral load in patients sensitized and rechallenged topically; assay type: in vivo, human
Description: As examples of the HIV viral load reducing effects of the subject compositions, two patients were sensitized with 0.400% diphenylcyclopropenone in a vehicle consisting of equal parts of polyoxysorbitan 20 monooleate and isopropyl myristate and subsequently rechallenged with 0.100% diphenylcyclopropenone in the same vehicle two weeks, four weeks and eight weeks later.

[1] = cited from earlier work
[2] = rodents; cited from earlier work

SMILES	HIV-1 RNA Copies/1.0 ml Plasma (HIV-1; Patient #1, Baseline)	HIV-1 RNA Copies/1.0 ml Plasma (HIV-1; Patient #1, Eight Weeks, sensitized 0.400%, rechallenged 0.100% topically) [Copies/1.0 ml Plasma]	HIV-1 RNA Copies/1.0 ml Plasma (HIV-1; Patient #1, Four Weeks, sensitized 0.400%, rechallenged 0.100% topically) [Copies/1.0 ml Plasma]	HIV-1 RNA Copies/1.0 ml Plasma (HIV-1; Patient #1, Two Weeks, sensitized 0.400%, rechallenged 0.100% topically) [Copies/1.0 ml Plasma]	HIV-1 RNA Copies/1.0 ml Plasma (HIV-1; Patient #2, Baseline) [Copies/1.0 ml Plasma]	HIV-1 RNA Copies/1.0 ml Plasma (HIV-1; Patient #2, Eight Weeks, sensitized 0.400%, rechallenged 0.100% topically) [Copies/1.0 ml Plasma]	toxic effects with repeated human use [1]	LD/50 [2] [mg/kg]
O=c1c(-c2ccccc2)c1-c1ccccc1 [diphenylcyclopropenone]	400 Copies Copies/1.0 ml Plasma	79	60	118	440	351		
CC(C)=O [Acetone]							epidermal erythema, dryness, headache, bronchial irritation, CNS effects including fatigue and excitement	10.7
